One block for each molecule: values may come before it. The source made the active and inactive calls. No cut-off for these calls is given here.
Experiments:
[1] = Ratio of drug level in brain to plasma in CD-1 mouse at 15 mg/kg, po measured at 0.5 hrs; type: ADME, organism-based; set-up: dose 15 mg/kg, route oral; details: read-out: BPR
[2] = target: Serine/threonine-protein kinase mTOR (Homo sapiens, UniProt P42345); experiment: Inhibition of human recombinant mTOR (1360 to 2549 amino acids) assessed as reduction in phosphorylation of (GFP)-4-EBP1 after 30 mins by FRET assay; details: read-out: Ki(app)
[3] = Half life in po dosed CD-1 mouse; type: ADME, organism-based; details: in vivo
[4] = Plasma protein binding in CD-1 mouse; type: ADME, cell-free; details: read-out: PPB (converted)
[5] = Ratio of drug level in brain to plasma in CD-1 mouse at 15 mg/kg, po at 0.5 hr; type: ADME, organism-based; set-up: dose 15 mg/kg, route oral; details: read-out: BPR
[6] = Ratio of drug level in brain to plasma in CD-1 mouse at 15 mg/kg, po at 4 hrs; type: ADME, organism-based; set-up: dose 15 mg/kg, route oral; details: read-out: BPR
[7] = in vitro; details: human, liver microsomes
[8] = Ratio of drug level in brain to plasma in CD-1 mouse at 20 mg/kg, po measured at 1 hr; type: ADME, organism-based; set-up: dose 20 mg/kg, route oral; details: read-out: BPR
[9] = Clearance in rat; type: ADME, organism-based; details: in vivo
[10] = Protein binding in CD-1 mouse plasma at 25 mg/kg, po administered as single dose; type: ADME, organism-based; set-up: dose 25 mg/kg, route oral; details: read-out: PPB (converted)
[11] = Protein binding in CD-1 mouse brain at 25 mg/kg, po administered as single dose; type: ADME, organism-based; set-up: dose 25 mg/kg, route oral; details: read-out: PB (converted)
[12] = Clearance in po dosed CD-1 mouse; type: ADME, organism-based; details: in vivo
[13] = Oral bioavailability in CD-1 mouse; type: ADME, organism-based; details: in vivo
[14] = Ratio of drug level in brain to plasma in CD-1 mouse at 15 mg/kg, po at 1 hr; type: ADME, organism-based; set-up: dose 15 mg/kg, route oral; details: read-out: BPR
[15] = Ratio of drug level in brain to plasma in CD-1 mouse at 15 mg/kg, po at 6 hrs; type: ADME, organism-based; set-up: dose 15 mg/kg, route oral; details: read-out: BPR
[16] = test system: mouse Bcrp1; experiment: in vitro; details: dog
[17] = target: Phosphatidylinositol 4,5-bisphosphate 3-kinase catalytic subunit alpha isoform (Homo sapiens, UniProt P42336); experiment: Inhibition of PI3Kalpha assessed as reduction in PIP3 formation after 30 mins by fluorescence polarization assay
[18] = test system: PC-3; experiment: Antiproliferative activity against human PC3 cells incubated for 3 days; type: functional, cell-based; details: PC-3, 72 h
[19] = Drug uptake in NCr nude mouse brain xenografted with PTEN deficient human U87MG cells at 40 mg/kg after 1 hr; type: ADME, organism-based, U-87MG ATCC; set-up: dose 40 mg/kg; details: read-out: Drug uptake
[20] = Drug uptake in healthy mouse brain at 50 mg/kg after 1 hr; type: ADME, organism-based; set-up: dose 50 mg/kg; details: read-out: Drug uptake
[21] = target: Phosphatidylinositol 4-phosphate 3-kinase C2 domain-containing subunit beta (Homo sapiens) (UniProt O00750); experiment: Inhibition of PI3KC2beta at 1 uM
[22] = test system: U-87MG ATCC; experiment: Antitumor activity against PTEN deficient human U87MG cells xenografted in NCr nude mouse assessed as inhibition of tumor growth at 3 to 14 mg/kg, po qd for 24 days; type: functional, organism-based
[23] = Drug level in CD-1 mouse brain at 50 mg/kg, po administered as single dose measured after 6 hrs post dose; type: ADME, organism-based; set-up: dose 50 mg/kg, route oral; details: read-out: Drug uptake
[24] = Drug level in CD-1 mouse brain at 50 mg/kg, po administered as single dose measured after 1 hr post dose; type: ADME, organism-based; set-up: dose 50 mg/kg, route oral; details: read-out: Drug uptake
[25] = Ratio of drug level in brain to plasma in CD-1 mouse at 50 mg/kg, po at 1 hr; type: ADME, organism-based; set-up: dose 50 mg/kg, route oral; details: read-out: BPR
[26] = Ratio of drug level in brain to plasma in CD-1 mouse at 50 mg/kg, po at 6 hrs; type: ADME, organism-based; set-up: dose 50 mg/kg, route oral; details: read-out: BPR
[27] = Cytotoxicity against human A172 cells incubated for 4 days; type: functional, cell-based; details: A 172, 96 h
[28] = Cytotoxicity against human Hs683 cells incubated for 4 days; type: functional, cell-based; details: Hs 683, 96 h
[29] = Cytotoxicity against human LN229 cells incubated for 4 days; type: functional, cell-based; details: LN-229, 96 h
[30] = test system: M059J; experiment: Cytotoxicity against human M059J cells incubated for 4 days; type: functional, cell-based; details: 96 h
[31] = test system: SF-539; experiment: Cytotoxicity against human SF539 cells incubated for 4 days; type: functional, cell-based; details: SF-539, 96 h
[32] = Cytotoxicity against human U87MG cells incubated for 4 days; type: functional, cell-based, U-87MG ATCC; details: U-87 MG, 96 h
[33] = test system: SF-268; experiment: Cytotoxicity against human SF268 cells incubated for 4 days; type: functional, cell-based; details: SF-268, 96 h
[34] = test system: Mus musculus; experiment: Inhibition of PI3K signaling in CD-1 mouse assessed as reduction in pAKT level at 50 mg/kg, po administered as single dose measured after 1 hr post dose by immunoblotting method; type: functional; details: CD-1, 1 h
[35] = test system: Mus musculus; experiment: Inhibition of PI3K signaling in CD-1 mouse assessed as reduction in pAKT level at 50 mg/kg, po administered as single dose measured after 6 hrs post dose by immunoblotting method; type: functional; details: CD-1, 6 h
[36] = Toxicity in PTEN deficient human U87MG cells xenografted in NCr nude mouse at dosed orally once daily for 24 days; type: organism-based, U-87MG ATCC; details: in vivo, po
[37] = test system: Mus musculus; experiment: Toxicity in PTEN deficient human U87MG cells xenografted in NCr nude mouse assessed as loss in body weight at 30 mg/kg, po qd for 24 days; type: organism-based, U-87MG ATCC; set-up: dose 30 mg/kg, route oral; details: in vivo, 576 h
[38] = Antitumor activity in PTEN deficient human U87MG cells xenografted in NCr nude mouse assessed as loss in body weight at 40 mg/kg, po after 24 days; type: functional, U-87MG ATCC
[39] = test system: Mus musculus; experiment: Toxicity in PTEN deficient human U87MG cells xenografted in NCr nude mouse assessed as loss in body weight at 50 mg/kg, po qd for 24 days; type: organism-based, U-87MG ATCC; set-up: dose 50 mg/kg, route oral; details: in vivo, 576 h
[40] = organism: Mus musculus; details: NCr, U-87MG ATCC, 10 mg/kg
[41] = organism: Mus musculus; details: NCr, U-87MG ATCC, 40 mg/kg
[42] = organism: Mus musculus; details: NCr, U-87MG ATCC, 3 mg/kg
[43] = organism: Mus musculus; details: NCr, U-87MG ATCC, 10 mg/kg; remark: listed apart in the source
[44] = organism: Mus musculus; details: NCr, U-87MG ATCC, 40 mg/kg; remark: listed apart in the source
[45] = organism: Mus musculus; details: NCr, U-87MG ATCC, 3 mg/kg; remark: listed apart in the source

Chain of Phosphatidylinositol 4,5-bisphosphate 3-kinase catalytic subunit alpha isoform (P42336 whole entry, canonical isoform): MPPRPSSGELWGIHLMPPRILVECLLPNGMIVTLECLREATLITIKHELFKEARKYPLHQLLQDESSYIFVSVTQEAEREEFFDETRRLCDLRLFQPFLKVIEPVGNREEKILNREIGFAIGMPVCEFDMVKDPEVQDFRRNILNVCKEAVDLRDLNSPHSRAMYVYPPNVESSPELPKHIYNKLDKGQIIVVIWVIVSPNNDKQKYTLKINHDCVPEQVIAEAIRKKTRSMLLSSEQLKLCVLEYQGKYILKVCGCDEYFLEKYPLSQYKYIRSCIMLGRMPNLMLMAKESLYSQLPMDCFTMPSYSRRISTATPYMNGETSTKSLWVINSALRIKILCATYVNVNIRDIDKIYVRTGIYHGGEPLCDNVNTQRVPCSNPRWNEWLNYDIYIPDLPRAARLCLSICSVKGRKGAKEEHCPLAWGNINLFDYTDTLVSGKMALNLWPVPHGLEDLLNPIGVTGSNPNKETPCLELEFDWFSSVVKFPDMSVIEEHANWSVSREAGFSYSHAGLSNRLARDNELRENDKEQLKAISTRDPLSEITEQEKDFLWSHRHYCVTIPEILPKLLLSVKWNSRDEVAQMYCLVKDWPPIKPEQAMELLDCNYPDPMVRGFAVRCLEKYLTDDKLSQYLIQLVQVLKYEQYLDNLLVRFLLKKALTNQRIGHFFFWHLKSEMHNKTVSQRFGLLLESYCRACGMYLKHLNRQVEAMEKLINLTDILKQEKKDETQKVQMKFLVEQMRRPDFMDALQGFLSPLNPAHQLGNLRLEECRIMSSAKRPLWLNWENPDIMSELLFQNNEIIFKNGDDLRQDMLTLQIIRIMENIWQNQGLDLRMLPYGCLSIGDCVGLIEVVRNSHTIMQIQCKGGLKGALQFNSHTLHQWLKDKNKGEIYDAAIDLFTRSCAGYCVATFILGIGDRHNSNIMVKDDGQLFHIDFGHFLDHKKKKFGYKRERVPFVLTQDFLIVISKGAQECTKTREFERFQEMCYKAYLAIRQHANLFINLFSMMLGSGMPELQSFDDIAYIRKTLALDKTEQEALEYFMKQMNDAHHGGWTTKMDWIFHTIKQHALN
Chain of Phosphatidylinositol 4-phosphate 3-kinase C2 domain-containing subunit beta (Homo sapiens) (O00750 whole entry, the tested form may be a part): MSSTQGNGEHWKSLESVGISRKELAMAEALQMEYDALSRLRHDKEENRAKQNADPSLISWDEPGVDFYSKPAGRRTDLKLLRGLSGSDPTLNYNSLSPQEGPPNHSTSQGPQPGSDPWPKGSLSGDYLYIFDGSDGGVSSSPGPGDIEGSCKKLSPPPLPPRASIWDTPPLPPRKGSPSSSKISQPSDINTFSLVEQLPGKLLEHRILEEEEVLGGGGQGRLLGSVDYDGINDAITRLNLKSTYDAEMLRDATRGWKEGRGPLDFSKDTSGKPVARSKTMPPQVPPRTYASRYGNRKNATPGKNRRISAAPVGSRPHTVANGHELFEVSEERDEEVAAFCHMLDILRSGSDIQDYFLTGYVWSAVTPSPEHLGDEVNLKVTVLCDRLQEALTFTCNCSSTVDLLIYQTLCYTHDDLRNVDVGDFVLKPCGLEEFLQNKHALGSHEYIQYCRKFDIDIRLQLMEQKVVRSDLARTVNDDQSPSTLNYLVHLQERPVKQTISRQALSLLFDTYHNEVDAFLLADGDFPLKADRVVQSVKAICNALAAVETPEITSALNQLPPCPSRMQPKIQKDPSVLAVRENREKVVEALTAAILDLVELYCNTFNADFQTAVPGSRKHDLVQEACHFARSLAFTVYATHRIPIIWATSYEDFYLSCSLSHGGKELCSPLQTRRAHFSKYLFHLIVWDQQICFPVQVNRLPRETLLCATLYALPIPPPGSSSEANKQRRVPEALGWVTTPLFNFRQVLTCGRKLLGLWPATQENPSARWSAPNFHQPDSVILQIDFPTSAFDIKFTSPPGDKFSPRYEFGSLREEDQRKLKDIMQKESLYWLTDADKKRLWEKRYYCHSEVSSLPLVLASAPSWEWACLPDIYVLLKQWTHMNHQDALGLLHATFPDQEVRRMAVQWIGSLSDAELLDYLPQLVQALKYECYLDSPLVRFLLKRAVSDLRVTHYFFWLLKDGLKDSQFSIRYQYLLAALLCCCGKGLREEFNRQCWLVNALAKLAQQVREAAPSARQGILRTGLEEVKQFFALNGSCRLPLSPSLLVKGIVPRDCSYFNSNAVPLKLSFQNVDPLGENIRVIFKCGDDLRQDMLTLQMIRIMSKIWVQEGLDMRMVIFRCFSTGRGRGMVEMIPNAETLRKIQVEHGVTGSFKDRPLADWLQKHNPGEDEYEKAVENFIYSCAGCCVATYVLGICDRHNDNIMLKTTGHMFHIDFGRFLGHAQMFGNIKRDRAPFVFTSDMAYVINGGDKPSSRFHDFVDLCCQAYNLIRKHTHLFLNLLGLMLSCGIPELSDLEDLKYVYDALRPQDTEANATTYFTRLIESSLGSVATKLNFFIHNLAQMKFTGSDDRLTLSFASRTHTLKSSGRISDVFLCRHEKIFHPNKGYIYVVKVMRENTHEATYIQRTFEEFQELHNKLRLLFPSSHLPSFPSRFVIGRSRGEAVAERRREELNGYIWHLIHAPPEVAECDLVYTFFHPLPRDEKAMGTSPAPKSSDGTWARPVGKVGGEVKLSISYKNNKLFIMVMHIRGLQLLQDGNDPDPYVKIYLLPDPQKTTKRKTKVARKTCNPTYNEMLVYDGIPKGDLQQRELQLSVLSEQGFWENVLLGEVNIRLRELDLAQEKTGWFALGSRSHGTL

Kp at 0.5 h [1]: 0.2
Ki [2]: 30 nM
half-life [3]: 132 min
fraction unbound [4]: 0.198
Kp at 0.5 h [5]: 0.3
Kp at 4 h [6]: 0.2
CLhep predicted [7]: 4 mL/min/kg
SMILES: CC(C)(O)c1cc2nc(-c3cnc(N)nc3)nc(N3CCOCC3)c2s1

Kp at 1 h [8]: < 0.1
clearance [9]: 3 mL/min/kg
CLhep predicted [7]: 3 mL/min/kg
SMILES: Cc1c(CN2CCN(C(=O)[C@H](C)O)CC2)sc2c(N3CCOCC3)nc(-c3cnc(N)nc3)nc12 [APITOLISIB]

fraction unbound [10]: 0.006
fraction unbound [11]: 0.003
Ki [2]: 13 nM
CL/F [12]: 16 mL/min/kg
half-life [3]: 174 min
bioavailability [13]: 93%
fraction unbound [4]: 0.006
Kp at 1 h [14]: 1.4
Kp at 6 h [15]: 1.6
efflux ratio at 2 h, 5 µM [16]: 2.3
SMILES: CC1(C)OCCc2c1sc1c(N3CCOCC3)nc(-c3cnc(N)nc3)nc21

efflux ratio at 2 h, 5 µM [16]: 5.4
SMILES: Cc1c(C(C)(C)O)sc2c(N3CCOCC3)nc(-c3cnc(N)nc3)nc12

IC50 [17]: 9 nM
EC50 [18]: 364 nM
clearance [9]: 238 mL/min/kg
CLhep predicted [7]: 11 mL/min/kg
efflux ratio at 2 h, 5 µM [16]: 1
SMILES: Cc1csc2c(N3CCOCC3)nc(-c3cnc(N)nc3)nc12

IC50 [17]: 36 nM
EC50 [18]: 3600 nM
CLhep predicted [7]: 16 mL/min/kg
efflux ratio at 2 h, 5 µM [16]: 1
SMILES: c1cc(-c2nc(N3CCOCC3)c3sccc3n2)c2cn[nH]c2c1

SMILES: COC1(c2sc3c(N4CCOCC4)nc(-c4cnc(N)nc4)nc3c2C)COC1
concentration at 1 h [19]: 2200 nM
concentration at 1 h [20]: 3.6 µM
inhibition [21]: 77%
TGI [22]: Dose-dependent effect
concentration at 6 h [23]: 2310 nM
concentration at 1 h [24]: 3.64 µM
CL/F [12]: 32 mL/min/kg
half-life [3]: 1020 min
bioavailability [13]: 75%
fraction unbound [4]: 0.15
Kp at 1 h [25]: 1
Kp at 6 h [26]: 1
EC50 [27]: 240 nM
EC50 [28]: 230 nM
EC50 [29]: 140 nM
EC50 [30]: 330 nM
EC50 [31]: 250 nM
EC50 [32]: 250 nM
EC50 [33]: 570 nM
inhibition in vivo at 50 mg/kg [34]: 62%
inhibition in vivo at 50 mg/kg [35]: 31%
MTD at 576 h [36]: 40 mg/kg
Activity [37]: Non-toxic
Activity [38]: <15%
Activity [39]: > 15%
inhibition [40]: Active
inhibition [41]: Active
inhibition [42]: Active
inhibition [43]: Active
inhibition [44]: Active
inhibition [45]: Active
